In brackets after ≈: the same amount, converted by molar mass. Activity calls are given as the source filed them. The rule behind the calls is not given here.
How the values were obtained:
Candida albicans [1] = test: Antimicrobial activity against Candida albicans ATCC10231 assessed as fungal growth inhibition incubated for 48 hrs by Sabouraud Dextrose broth based dilution assay; format: functional
Candida albicans [2] = test: Antimicrobial activity against Candida albicans CMCC98001 assessed as fungal growth inhibition incubated for 48 hrs by Sabouraud Dextrose broth based dilution assay; format: functional
Staphylococcus aureus [3] = test: Antimicrobial activity against Staphylococcus aureus ATCC29213 assessed as bacterial growth inhibition incubated for 24 hrs by Muller Hinton broth based dilution assay; format: functional
Staphylococcus aureus [4] = test: Antimicrobial activity against methicillin-resistant Staphylococcus aureus N315 assessed as bacterial growth inhibition incubated for 24 hrs by Muller Hinton broth based dilution assay; format: functional
Staphylococcus aureus [5] = test: Antimicrobial activity against methicillin-resistant Staphylococcus aureus NCTC10442 assessed as bacterial growth inhibition incubated for 24 hrs by Muller Hinton broth based dilution assay; format: functional
Escherichia coli [6] = test: Antimicrobial activity against Escherichia coli ATCC25922 assessed as bacterial growth inhibition incubated for 24 hrs by Muller Hinton broth based dilution assay; format: functional
[7] = Hemolytic activity in rabbit RBC incubated for 1 hr by absorbance based microplate reader assay; format: toxicity, cell-based, Oryctolagus cuniculus, Erythrocyte; conditions: rabbit red blood cells (erythrocytes)
Pseudomonas aeruginosa = test: Antimicrobial activity against Pseudomonas aeruginosa ATCC9027 assessed as bacterial growth inhibition incubated for 24 hrs by Muller Hinton broth based dilution assay; format: functional
Acinetobacter baumannii [8] = test: Antimicrobial activity against Acinetobacter baumannii ATCC17978 assessed as bacterial growth inhibition incubated for 24 hrs by Muller Hinton broth based dilution assay; format: functional
Acinetobacter baumannii [9] = test: Antimicrobial activity against Acinetobacter baumannii R2889 assessed as bacterial growth inhibition incubated for 24 hrs by Muller Hinton broth based dilution assay; format: functional
Klebsiella pneumoniae [10] = test: Antimicrobial activity against Klebsiella pneumoniae ATCC10031 assessed as bacterial growth inhibition incubated for 24 hrs by Muller Hinton broth based dilution assay; format: functional
Klebsiella pneumoniae [11] = test: Antimicrobial activity against Klebsiella pneumoniae ATCC14581 assessed as bacterial growth inhibition incubated for 24 hrs by Muller Hinton broth based dilution assay; format: functional
Cell membrane = test: Disruption of outer membrane integrity in Acinetobacter baumannii ATCC17978 at 25 ug/mL; conditions: dose 25.0 µg/ml
Escherichia coli [12] = test: Antibiofilm activity against Escherichia coli ATCC25922 assessed as inhibition of biofilm formation at 0.39 ug/mL incubated for 24 hrs by crystal violet staining based analysis relative to control; format: functional; conditions: dose 0.39 µg/ml
Escherichia coli [13] = test: Antibiofilm activity against Escherichia coli ATCC25922 assessed as inhibition of biofilm formation at 0.78 ug/mL incubated for 24 hrs by crystal violet staining based analysis relative to control; format: functional; conditions: dose 0.78 µg/ml
Escherichia coli [14] = test: Antibiofilm activity against Escherichia coli ATCC25922 assessed as inhibition of biofilm formation at 3.125 ug/mL incubated for 24 hrs by crystal violet staining based analysis relative to control; format: functional; conditions: dose 3.125 µg/ml
Escherichia coli [15] = test: Antibiofilm activity against Escherichia coli ATCC25922 assessed as inhibition of biofilm formation at 6.25 ug/mL incubated for 24 hrs by crystal violet staining based analysis relative to control; format: functional; conditions: dose 6.25 µg/ml
Escherichia coli [16] = test: Disruption of preformed biofilm in Escherichia coli ATCC25922 assessed as residual preformed biofilm at 6.25 ug/mL incubated for 24 hrs by crystal violet staining based analysis relative to control; format: functional; conditions: dose 6.25 µg/ml
Escherichia coli [17] = test: Disruption of preformed biofilm in Escherichia coli ATCC25922 assessed as residual preformed biofilm at 0.78 ug/mL incubated for 24 hrs by crystal violet staining based analysis relative to control; format: functional; conditions: dose 0.78 µg/ml
Escherichia coli [18] = test: Disruption of preformed biofilm in Escherichia coli ATCC25922 assessed as residual preformed biofilm at 3.125 ug/mL incubated for 24 hrs by crystal violet staining based analysis relative to control; format: functional; conditions: dose 3.125 µg/ml
Escherichia coli [19] = test: Disruption of preformed biofilm in Escherichia coli ATCC25922 assessed as residual preformed biofilm at 12.5 ug/mL incubated for 24 hrs by crystal violet staining based analysis relative to control; format: functional; conditions: dose 12.5 µg/ml
Escherichia coli [20] = test: Disruption of preformed biofilm in Escherichia coli ATCC25922 assessed as residual preformed biofilm at 25 ug/mL incubated for 24 hrs by crystal violet staining based analysis relative to control; format: functional; conditions: dose 25.0 µg/ml

Compound | MIC (Candida albicans [1]) | MIC (Candida albicans [2]) | MIC (Staphylococcus aureus [3]) | MIC (Staphylococcus aureus [4]) | MIC (Staphylococcus aureus [5]) | MIC (Escherichia coli [6]) | HC50 at 1 h [7] | MIC (Pseudomonas aeruginosa) | MIC (Acinetobacter baumannii [8]) | MIC (Acinetobacter baumannii [9]) | MIC (Klebsiella pneumoniae [10]) | MIC (Klebsiella pneumoniae [11]) | also measured
CCCCCCCN1CCCc2cc(OCCCCNC(=N)N)ccc21 | 6.25 µg/mL (≈ 17.3 µM) | 3.12 µg/mL (≈ 8.67 µM) | 1.56 µg/mL (≈ 4.33 µM) | 0.78 µg/mL (≈ 2.16 µM) | 0.78 µg/mL (≈ 2.16 µM) | 3.12 µg/mL (≈ 8.67 µM) | 169 µg/mL | 6.25 µg/mL (≈ 17.3 µM) | 6.25 µg/mL (≈ 17.3 µM) | 6.25 µg/mL (≈ 17.3 µM) | 1.56 µg/mL (≈ 4.33 µM) | 1.56 µg/mL (≈ 4.33 µM) | 
CCCCCCCN1CCCc2cc(OCCCCCCCCNC(=N)N)ccc21 | 0.78 µg/mL (≈ 1.87 µM) | 0.39 µg/mL (≈ 0.936 µM) | 1.56 µg/mL (≈ 3.74 µM) | 0.78 µg/mL (≈ 1.87 µM) | 0.78 µg/mL (≈ 1.87 µM) | 3.12 µg/mL (≈ 7.5 µM) | > 200 µg/mL | > 50 µg/mL | 25 µg/mL (≈ 60 µM) | 12.5 µg/mL (≈ 30 µM) | 12.5 µg/mL (≈ 30 µM) | 12.5 µg/mL (≈ 30 µM) | Activity (Cell membrane): inactive
CCCCCCCCCN1CCCc2cc(OCC(=O)N[C@@H](CCCNC(=N)N)C(=O)N[C@@H](CCCNC(=N)N)C(=O)OC)ccc21 | > 50 µg/mL | 50 µg/mL (≈ 75.8 µM) | 1.56 µg/mL (≈ 2.36 µM) | 1.56 µg/mL (≈ 2.36 µM) | 1.56 µg/mL (≈ 2.36 µM) | 3.12 µg/mL (≈ 4.74 µM) | > 200 µg/mL | 6.25 µg/mL (≈ 9.47 µM) | 6.25 µg/mL (≈ 9.47 µM) | 25 µg/mL (≈ 37.9 µM) | 3.12 µg/mL (≈ 4.74 µM) | 3.12 µg/mL (≈ 4.74 µM) | 
O=C(O)c1cn(C2CC2)c2cc(N3CCNCC3)c(F)cc2c1=O [CIPROFLOXACIN] |  |  | 0.39 µg/mL (≈ 1.18 µM) | 0.39 µg/mL (≈ 1.18 µM) | 0.39 µg/mL (≈ 1.18 µM) | 0.049 µg/mL (≈ 0.148 µM) |  | 0.195 µg/mL (≈ 0.589 µM) | 0.39 µg/mL (≈ 1.18 µM) | 0.78 µg/mL (≈ 2.35 µM) | 0.195 µg/mL (≈ 0.589 µM) | 0.195 µg/mL (≈ 0.589 µM) | 
CCCCCCCCCN1CCCc2cc(OCC(=O)N[C@@H](CCCNC(=N)N)C(N)=O)ccc21 | 3.12 µg/mL (≈ 6.39 µM) | 3.12 µg/mL (≈ 6.39 µM) | 1.56 µg/mL (≈ 3.19 µM) | 1.56 µg/mL (≈ 3.19 µM) | 1.56 µg/mL (≈ 3.19 µM) | 3.12 µg/mL (≈ 6.39 µM) | > 200 µg/mL | 6.25 µg/mL (≈ 12.8 µM) | 12.5 µg/mL (≈ 25.6 µM) | 12.5 µg/mL (≈ 25.6 µM) | 3.12 µg/mL (≈ 6.39 µM) | 3.12 µg/mL (≈ 6.39 µM) | 
CC(C)=CCC/C(C)=C/CN1CCCc2cc(OCCCCNC(=N)N)ccc21 | 3.12 µg/mL (≈ 7.84 µM) | 1.56 µg/mL (≈ 3.91 µM) | 0.78 µg/mL (≈ 1.96 µM) | 0.78 µg/mL (≈ 1.96 µM) | 0.78 µg/mL (≈ 1.96 µM) | 3.12 µg/mL (≈ 7.84 µM) | 154 µg/mL | 6.25 µg/mL (≈ 15.7 µM) | 3.12 µg/mL (≈ 7.84 µM) | 3.12 µg/mL (≈ 7.84 µM) | 1.56 µg/mL (≈ 3.91 µM) | 1.56 µg/mL (≈ 3.91 µM) | 
CC(C)=CCN1CCCc2cc(OCCCCN3CCCCC3)ccc21 | > 50 µg/mL | > 50 µg/mL | > 50 µg/mL | > 50 µg/mL | > 50 µg/mL | > 50 µg/mL | > 200 µg/mL |  |  |  |  |  | 
CC(C)=CCN1CCCc2cc(OCCCCCCCCCCCCBr)ccc21 | > 50 µg/mL | > 50 µg/mL | > 50 µg/mL | > 50 µg/mL | > 50 µg/mL | > 50 µg/mL | > 200 µg/mL |  |  |  |  |  | 
POLYMYXIN B |  |  |  |  |  |  |  |  |  |  |  |  | inhibition (Escherichia coli [12]): 22.9%; inhibition (Escherichia coli [13]): 43.3%; inhibition (Escherichia coli [14]): 99.8%; inhibition (Escherichia coli [15]): 100%; Activity (Escherichia coli [16]): 7.57%; Activity (Escherichia coli [17]): 87.5%; Activity (Escherichia coli [18]): 19.2%; Activity (Escherichia coli [19]): 8.48%; Activity (Escherichia coli [20]): 6.65%
CC(C)=CCN1CCCc2cc(OCCCCBr)ccc21 | > 50 µg/mL | > 50 µg/mL | 25 µg/mL (≈ 71 µM) | 12.5 µg/mL (≈ 35.5 µM) | 25 µg/mL (≈ 71 µM) | > 50 µg/mL | > 200 µg/mL |  |  |  |  |  | 

— ChEMBL document CHEMBL5352419, “Design, synthesis, and biological evaluation of tetrahydroquinoline amphiphiles as membrane-targeting antimicrobials against pathogenic bacteria and fungi” (Eur J Med Chem, 2022)
